In US12435061B2 (priority 2020, dated 2025):
≈ marks a conversion by molar mass, not a printed value. Where “and” joins values, the source holds several entries; their conditions need not be identical. Identical values can stand only once. Like-named read-outs stand apart in the source and are kept apart here.

Tests used:
[1] = target: T1, hTRPV3 (Homo sapiens (Human), UniProt Q8NET8); test: Whole-cell patch clamp, hTRPV3 Phase 1 / Phase 2 currents; format: cell-based
Method in brief: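 Whole-cell recordings on induced TRPV3 cells replated on coverslips, held at −40 mV with 400 ms ramps from −120 to +100 mV every 5 s; currents read at −80 and +80 mV. Ringer's external solution; current activated by heating to ≥28 °C or 20 μM 2-APB.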

[2] = Aqueous solubility assay in Normal Ringer Solution; details: saline or isotonic, kinetic from dmso stock
Protocol: Following vortex and incubation for a sufficient time (e.g. 40 minutes at room temperature), solutions were filtered, quenched with acetonitrile, and analyzed by Liquid Chromotography. Solubility Limits were determined by comparison to a standard curve.

[3] = Metabolic Stability assay, human liver microsomes; format: in vitro ADME
Protocol: Metabolic Stability assay: The metabolic stability was determined by adding compound dissolved in DMSO to human or rat, liver microsomes. Briefly, assays were run with a starting concentration of 1 μM test article. The reaction was started by addition of NADPH regeneration components at 37° C. at which time an aliquot was immediately quenched in ice-cold acetonitrile/MeOH/H2O solution. Reaction mixture was incubated at 37° C. on a shaker, and additional aliquots were taken at 7, 15, 30 and 60 minutes. Following quench and centrifugation, samples were analyzed on HPLC/MS/MS.

[4] = Metabolic Stability assay, rat liver microsomes; format: in vitro ADME
Method in brief: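 Test article at 1 μM starting concentration incubated with human or rat liver microsomes at 37 °C, with the reaction started by NADPH regeneration components. Aliquots were quenched in cold acetonitrile/MeOH/H2O at 0, 7, 15, 30 and 60 min and analysed by HPLC/MS/MS.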

[5] = target: T1, hTRPV3; test: hTRPV3 HAMA IC50 assay (Hamamatsu FDSS6000 calcium flux, TRex-293 cells); details: 5 min
Protocol: IC50s were calculated using CBIS from ChemInnovation (San Diego).

[6] = target: human hERG channels (Homo sapiens (Human), UniProt Q12809); test: hERG assay (patch clamp, CHO cells); format: cell-based
human hERG channels, sequence (Q12809 whole entry): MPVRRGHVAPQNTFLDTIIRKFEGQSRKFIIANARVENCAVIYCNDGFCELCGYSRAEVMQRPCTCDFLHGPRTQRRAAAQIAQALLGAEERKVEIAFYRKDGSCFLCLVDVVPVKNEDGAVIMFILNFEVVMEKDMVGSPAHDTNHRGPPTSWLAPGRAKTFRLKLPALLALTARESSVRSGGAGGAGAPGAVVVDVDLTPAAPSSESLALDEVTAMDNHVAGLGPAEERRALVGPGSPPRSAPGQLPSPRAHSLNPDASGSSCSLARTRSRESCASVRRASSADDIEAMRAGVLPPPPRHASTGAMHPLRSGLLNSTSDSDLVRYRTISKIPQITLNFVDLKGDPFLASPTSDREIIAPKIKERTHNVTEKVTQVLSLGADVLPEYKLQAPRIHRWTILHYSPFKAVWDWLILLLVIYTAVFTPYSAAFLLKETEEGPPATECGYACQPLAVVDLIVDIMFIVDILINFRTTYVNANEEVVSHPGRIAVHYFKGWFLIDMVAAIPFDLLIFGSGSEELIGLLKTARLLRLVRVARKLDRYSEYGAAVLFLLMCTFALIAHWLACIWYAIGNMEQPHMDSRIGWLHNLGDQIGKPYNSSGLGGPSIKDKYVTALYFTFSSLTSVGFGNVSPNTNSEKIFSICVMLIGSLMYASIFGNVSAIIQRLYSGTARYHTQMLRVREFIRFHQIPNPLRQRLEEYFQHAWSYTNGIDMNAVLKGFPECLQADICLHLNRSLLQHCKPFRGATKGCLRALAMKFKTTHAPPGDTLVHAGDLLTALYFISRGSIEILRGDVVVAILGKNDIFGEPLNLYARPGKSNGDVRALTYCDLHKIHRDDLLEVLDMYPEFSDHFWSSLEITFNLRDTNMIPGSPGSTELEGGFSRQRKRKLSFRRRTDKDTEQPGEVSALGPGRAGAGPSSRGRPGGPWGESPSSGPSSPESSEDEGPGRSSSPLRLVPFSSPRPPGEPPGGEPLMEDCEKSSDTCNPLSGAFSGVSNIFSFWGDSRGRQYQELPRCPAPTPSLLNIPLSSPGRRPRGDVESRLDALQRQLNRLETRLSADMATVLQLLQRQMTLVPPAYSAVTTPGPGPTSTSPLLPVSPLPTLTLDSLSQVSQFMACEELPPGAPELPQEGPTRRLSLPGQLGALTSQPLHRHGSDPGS
Protocol: hERG assay: Briefly, cells from a stable CHO cell line expressing human hERG channels were plated onto glass coverslips and used in patch clamp assays on the same day. After seal formation and break-in to whole-cell configuration, voltage steps were applied as follows: from the holding potential of −90 mV, a 2 second long step to +40 mV was applied, followed by a 1.5 second step to −50 mV. These steps were applied once every 5 seconds. The hERG current was measured at the peak of the outward tail current at −50 mV. The pipette solution was potassium aspartate based and the external solution was normal Ringer's.
All currents were recorded in whole-cell configuration using an Axopatch 200B controlled by pClamp 10 software (Molecular Devices). In each cell, when the current stabilized, the compound was perfused locally onto the cell. Two to three concentrations of the test compound were applied to each cell. At the end of compound testing, 10 μM verapamil was applied to completely block hERG currents and assess leak current.
Data were analyzed by computing the degree of current block after compound addition compared with the unblocked current amplitude. The unblocked current was predicted from the interpolation between the current amplitude prior to compound addition and after compound washout. The resulting percent block at each concentration was used to make a concentration-response plot and fitted to the Hill equation: percent block=minimum block+(maximum block-minimum block)/(1+10^(Hill slope*(log IC50−concentration))).

[7] = target: rat (r) TRPV3 (Rattus norvegicus, UniProt E9PU00); test: Whole-cell patch clamp, rTRPV3 Phase 1 / Phase 2 currents; format: cell-based
rat (r) TRPV3, sequence (E9PU00 1-791): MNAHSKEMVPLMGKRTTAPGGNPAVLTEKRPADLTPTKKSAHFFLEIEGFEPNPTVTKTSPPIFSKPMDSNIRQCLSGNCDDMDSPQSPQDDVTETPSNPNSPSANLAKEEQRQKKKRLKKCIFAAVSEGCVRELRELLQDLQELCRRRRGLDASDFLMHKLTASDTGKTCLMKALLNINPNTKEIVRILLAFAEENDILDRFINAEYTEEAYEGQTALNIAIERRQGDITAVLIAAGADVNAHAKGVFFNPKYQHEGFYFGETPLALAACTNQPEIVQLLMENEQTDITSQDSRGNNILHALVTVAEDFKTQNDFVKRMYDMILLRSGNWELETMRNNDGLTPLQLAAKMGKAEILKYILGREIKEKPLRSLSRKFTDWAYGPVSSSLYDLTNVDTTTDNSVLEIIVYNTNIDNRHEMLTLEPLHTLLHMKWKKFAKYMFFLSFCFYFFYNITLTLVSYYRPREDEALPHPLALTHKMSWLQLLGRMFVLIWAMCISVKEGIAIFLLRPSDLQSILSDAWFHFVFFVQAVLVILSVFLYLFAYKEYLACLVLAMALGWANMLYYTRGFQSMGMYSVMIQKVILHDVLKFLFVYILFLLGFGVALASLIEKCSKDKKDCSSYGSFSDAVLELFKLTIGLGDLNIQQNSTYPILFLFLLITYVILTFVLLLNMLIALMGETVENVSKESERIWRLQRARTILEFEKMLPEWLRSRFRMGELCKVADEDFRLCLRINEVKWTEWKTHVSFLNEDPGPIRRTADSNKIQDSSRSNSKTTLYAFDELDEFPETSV
From the text: Whole-cell patch clamp experiments permit the detection of currents through the TRPV3 channel in the cell line described above. A glass electrode is brought into contact with a single cell and the membrane is then ruptured, permitting control of the voltage of the cell membrane and measurement of currents flowing across the membrane using the amplifier attached to the electrode. A perfusion system permits control of the extracellular solution, including the addition of blockers and activators of the current. The current can be activated by heating this solution to 28° C. or warmer or by addition of 20 μM 2-APB to the solution.
TRPV3 cells were induced 20-48 hours, removed from growth plates, and replated at low density (to attain good single-cell physical separation) on glass coverslips for measurement. In some cases, cells were grown in low density overnight on glass coverslips. Patch clamp recordings were made in the whole-cell mode with a holding potential of −40 mV. Every 5 seconds, a voltage ramp was applied from −120 to +100 mV, 400 ms in duration. Currents elicited were quantified at −80 mV and +80 mV. The internal solution consisted of 140 mM cesium aspartate, 10 mM EGTA, 2.27 mM MgCl2, 1.91 mM CaCl2) and 10 mM HEPES, pH to 7.2 with KOH; with 50 nM calculated free […]. External solution was Ringer's solution described above. Upon addition of 2-APB or upon heating of the extraceullar solution as described above, TRPV3 current was induced only in TRPV3-expressing cells and not in parental HEK293 TREx cells. […] Removal of the stimulus caused most of the current to go away, and inhibitor addition could still inhibit this current.
In Tables 3 and 4, Phase 1 refers to Phase 1 current for human (h) TRPV3 or rat (r) TRPV3, and Phase 2 refers to Phase 2 current for human (h) TRPV3 or rat (r) TRPV3. The hTRPV3 and rTRPV3 assays were performed as described herein. hERG refers to the inhibition the human ERG (hERG) channel. NaV1.5, refers to the pore forming aL-subunit of the voltage-dependent cardiac Na(+) channel and is an integral membrane protein involved in the initiation and conduction of action potentials. hTRPV3 HAMA IC50 refers to the IC50 of TRPV3 cells stably expressed in TRex-293 cells. Solubility Ringer refers to the compounds' solubility in Ringer's solution. LM T1/2 refers to liver microsome half-lives in either rat or human liver microsomes. FLIPR IC50 refers to the IC50 of the test compounds against recombinant hTRPV3 cells.

[8] = Phase 1 current, human TRPV3, read-out: hTRPV3 (nM) Phase 1
[9] = Phase 1 current, inward, whole-cell patch clamp, read-out: hTRPV3 Patch P1 Inwd
[10] = Phase 1 current, read-out: hTRPV3 (nM) (Phase 1)
[11] = Phase 1 current, read-out: rTRPV3 (nM) (Phase 1)

T1 sequence (Q8NET8 whole entry): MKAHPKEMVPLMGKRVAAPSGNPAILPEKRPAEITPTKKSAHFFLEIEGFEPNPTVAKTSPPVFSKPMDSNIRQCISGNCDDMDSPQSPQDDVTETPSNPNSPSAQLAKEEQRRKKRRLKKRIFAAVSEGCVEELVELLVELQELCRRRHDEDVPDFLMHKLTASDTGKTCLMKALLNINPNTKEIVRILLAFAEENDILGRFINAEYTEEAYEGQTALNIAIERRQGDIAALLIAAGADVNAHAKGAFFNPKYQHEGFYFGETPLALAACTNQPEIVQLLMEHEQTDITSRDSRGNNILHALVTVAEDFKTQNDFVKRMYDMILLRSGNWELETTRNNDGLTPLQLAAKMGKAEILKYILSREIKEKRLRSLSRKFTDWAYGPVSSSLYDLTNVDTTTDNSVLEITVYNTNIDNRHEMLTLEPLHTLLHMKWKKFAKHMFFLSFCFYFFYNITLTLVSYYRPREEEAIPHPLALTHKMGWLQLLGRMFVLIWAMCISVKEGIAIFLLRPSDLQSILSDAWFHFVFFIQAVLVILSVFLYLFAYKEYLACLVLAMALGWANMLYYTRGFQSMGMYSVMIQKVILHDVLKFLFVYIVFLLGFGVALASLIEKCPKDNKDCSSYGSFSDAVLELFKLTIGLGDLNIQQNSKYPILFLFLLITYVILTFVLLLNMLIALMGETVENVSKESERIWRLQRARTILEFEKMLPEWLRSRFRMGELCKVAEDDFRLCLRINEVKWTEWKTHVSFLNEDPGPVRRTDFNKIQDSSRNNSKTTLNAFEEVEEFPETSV

SMILES	solubility at 40 min ([2]; Normal Ringer Solution)	half-life at 1 μM ([4]; read-out: LM T1/2 (min) (rat))	IC50 [1, 8]	IC50 [1, 9]	IC50 ([6]; (PL), read-out: hERG (nM) (PL))	half-life at 1 μM ([3]; read-out: LM T1/2 (min) human)	half-life at 1 μM ([4]; read-out: LM T1/2 (min) rat)	IC50 [1, 10]	IC50 [7, 11]	further results
NC(=O)c1cc(C(F)(F)F)ccc1N1CC[C@H](Oc2ccc(C(F)(F)F)cn2)C1 [Compound 1-58, (S)-5-(trifluoromethyl)-2-(3-(5-(trifluoromethyl)pyridin-2-yloxy)pyrrolidin-1-yl)benzamide]	> 11.3 µM	> 60 min	–	–	–	–	–	–	–	IC50 ([1]; hTRPV3 (nM) (Phase 1)): 1250 nM and 1520 nM and > 3200 nM; IC50 ([1]; hTRPV3 Patch P2 Inwd (nM)): 100 to 1000 nM; IC50 ([1]; read-out: hTRPV3 (nM) (Phase 1)): 1040 nM; IC50 ([1]; read-out: hTRPV3 (nM) (Phase 2)): 241 nM; half-life at 1 μM ([3]; read-out: LM T1/2 (min) (human)): > 60 min; hTRPV3 HAMA IC50 (nM) (5 min) [5]: no fit (5 min)
CCc1cc(C)ccc1-c1ccc(C2CCN(C(=O)c3ccc(F)cn3)C2)c(CO)c1 (stereo not drawn) [Compound 2-62, (3-(2′-ethyl-3-(hydroxymethyl)-4′-methylbiphenyl-4-yl)pyrrolidin-1-yl)(5-fluoropyridin-2-yl)methanone]	> 12.1 µM	–	64.9 nM	10 to 100 nM	17700 nM	14.9 min	14 min	–	–	–
OCc1cc(C(O)c2ccccc2Cl)ccc1N1CC[C@H](Oc2ncccc2Cl)C1 (stereo partly drawn) [Compound 1-262, (2-chlorophenyl)(4-((S)-3-(3-chloropyridin-2-yloxy)pyrrolidin-1-yl)-3-(hydroxymethyl)phenyl)methanol]	–	14.6 min	–	10 to 100 nM	–	–	–	23.7 nM	~20 nM	IC50 ([7]; Phase 2 current, read-out: rTRPV3 (nM) (Phase 2)): 21.3 nM; solubility at 40 min [2]: ~4.7 µM (≈ 2.09 µg/mL)
OCc1cc([C@@H](O)c2ccccc2Cl)ccc1N1CC[C@H](Oc2ncccc2F)C1 [Compound 1-321, (2-chlorophenyl)(4-((S)-3-(3-fluoropyridin-2-yloxy)pyrrolidin-1-yl)-3-(hydroxymethyl)phenyl)methanol]	> 9.8 µM	16.9 min	–	10 to 100 nM	–	–	–	12.2 nM	5.37 nM	hTRPV3 (nM) (Phase 2) ([1]; Phase 2 current): Incomplete Block; IC50 ([1]; Phase 2 current, read-out: hTRPV3 (nM) (Phase 2)): ~30 nM and ~44 nM; IC50 ([7]; rTRPV3 (nM) (Phase 2), Phase 2 current): ~15.7 nM; IC50 ([6]; (PL), read-out: hERG): ~3730 nM
CCc1ccccc1-c1ccc(C2CCN(C(=O)c3cccc(Cl)n3)C2)c(CO)c1 (stereo not drawn) [Compound 2-53, (6-chloropyridin-2-yl)(3-(2′-ethyl-3-(hydroxymethyl)biphenyl-4-yl)pyrrolidin-1-yl) methanone]	~7.7 µM (≈ 3.24 µg/mL)	–	8.39 nM	< 10 nM	–	24.9 min	12.3 min	–	–	–
CC(C)c1ccccc1-c1ccc(C2CCN(C(=O)c3ccc(F)cn3)C2)c(CO)c1 (stereo not drawn) [Compound 2-29, (5-fluoropyridin-2-yl)(3-(3-(hydroxymethyl)-2′-isopropylbiphenyl-4-yl)pyrrolidin-1-yl)methanone]	> 16.6 µM	–	6.03 nM	< 10 nM	7480 nM	8.8 min	16.8 min	–	–	IC50 ([7]; rTRPV3 (nM) Phase 1, Phase 1 current, rat TRPV3): 5.56 nM; IC50 ([6]; (M), read-out: hERG): 7380 nM
